Data reported in article PMC9386018, “A lymphatic-absorbed multi-targeted kinase inhibitor for myelofibrosis therapy” (Nature Communications, 2022).
“And” between values parts separate entries of the source, which are not always exact repeats. Equal entries are not always repeated.

Experiments:
[1] = system: MPL^W515L mouse model of myelofibrosis; assay: MPL^W515L MF mouse model: survival; assay type: in vivo; conditions: MPL^W515L mice, oral 400 mg kg^−1 daily
Procedure: Generation of the MPL^W515L mutant MF mouse model was similar to previously described methods. Briefly, female donor BALB/c mice were treated with 5-fluorouracil at 150 mg kg^−1 intraperitoneal for 5 d before harvesting bone marrow. Hematopoietic stem and progenitor cells were enriched with CD117 magnetic beads (Miltenyi Biotec), transduced with retrovirus containing MSCV-hMPL W515L-IRES-GFP, then 50,000 transduced HSPCs along with 300,000 total non-stem cells were injected intravenously into lethally irradiated female BALB/c recipients. Development of MF was evaluated by spleen volumes using MRI beginning ~14 d following bone marrow transplantation (BMT) as outlined below, continuing weekly until end of the study. Mice were separated into equal groups based on spleen size ~14–21 d post-BMT, then treated with vehicle (Maisine CC) or LP-182 at 400 mg kg^−1 daily by oral gavage for 14–28 d or until mice were euthanized using guidelines for end stage illness and humane endpoints. Untreated healthy control animals were used for experimental comparisons. […] Soluble protein extracts were isolated by centrifugation at 15,000 x g for 15 min at 4 °C, quantified using Micro BCA protein assay (Thermo Scientific), then mixed with reducing 6X SDS-PAGE loading dye, heated for 8 min at 95 °C, and stored at −20 °C until immuno-blot analysis. […]

[2] = Compound quantitation in blood and mesenteric lymph nodes; assay type: in vivo, mouse; conditions: female, CD-1, mouse, mesenteric lymph nodes; mice, 30 min after oral 100-1000 mg kg^−1
Procedure: Whole blood and mesenteric lymph nodes were collected either 30 min or 4 h following compound administration and stored at −20 °C until future processing and analysis by the University of Michigan Pharmacokinetics Core as above, or as outlined below, to determine compound concentrations in each tissue. […] Data was generated from n ≥ 4 individual animals per compound per study group or dose.
(§1) Briefly, acetonitrile was added to a final concentration of 60–80% to bone marrow, whole blood, plasma, lymphatic fluid, lymphatic proteo-lipid sub-fractions, or mesenteric lymph node samples for compound extraction. Extraction was performed by shaking and/or bead rupture using a Precellys Evolution tissue homogenizer (Bertin Technologies SAS). […] Optimization of MS and MS/MS parameters for MRM quantitation and maximum sensitivity of individual compounds was performed using SCIEX Analyst software (AB Sciex). […] All LC-MS/MS acquisitions were performed with an independent standard curve for each group of analytes and for each individual run. All solvents utilized were of Optima LC-MS Grade (Fisher Scientific). Data was generated from n ≥ 2 individual animals per compound per study condition or dose.

[3] = Fractionation of lymphatic fluid into lipoprotein fractions by ultracentrifugation; assay type: in vivo; conditions: rat lymphatic fluid, 50 mg kg^−1 intra-duodenal
Procedure: as §1

[4] = system: Caspase 3/7 activity in SET-2 cells; assay: SET-2 Caspase activation assay (Caspase-Glo 3/7); assay type: cell-based, human; conditions: 48 h; for Relative Caspase activation: normalized to vehicle, replicates
Procedure: Viable cells were counted by CellTiter-Fluor Assay (Promega) according to manufacturer’s protocol, and all fluorescence values were corrected by a no-cell control. For Caspase activation assays, SET-2 cells were cultured for 48 h at 10^6 cells mL^−1 with various concentration of LP-182 or vehicle (DMSO). Caspase activity was measured by Caspase-Glo 3/7 assay (Promega) according to the manufacturer’s protocol, and all luminescence values were corrected by a no-cell control. Dose response proliferation and Caspase activation data was normalized to vehicle treated control cells and analyzed by non-linear regression for determination of IC50 values. Data was generated from n = 3 independent experiments performed in replicate.

O=C(NOCCOCCOCCOCCC(=O)N1CCN(c2cnc3ccc(-c4cnc(Cl)c(NS(=O)(=O)c5ccc(F)cc5)c4)cc3n2)CC1)c1ccc(F)c(F)c1Nc1ccc(I)cc1F [LP-182, N-(2-(2-(2-(3-(4-(7-(6-chloro-5-((4-fluorophenyl)sulfonamido)pyridin-3-yl)quinoxalin-2-yl)piperazin-1-yl)-3-oxopropoxy)ethoxy)ethoxy)ethoxy)-3,4-difluoro-2-((2-fluoro-4-iodophenyl)amino)benzamide]
overall survival (Kaplan-Meier) [1]: significantly improved overall survival
survival to planned end of study ([1]; 28 d treatment): survived 50 d post-transplant
concentration at 30 min [2]: 5 to 15 µM
association with VLDL fraction, % of total [3]: 9.7%
association with chylomicron fraction, % of total [3]: 8.0%
apoptotic cell death (Caspase activation) [4]: initiated apoptotic cell death
Relative Caspase activation ([4]; LP-182 5 µM): 1.094 and 1.105 and 1.123 and 1.124 and 1.108 and 1.081
Relative Caspase activation ([4]; LP-182 10 µM): 1.411 and 1.334 and 1.453 and 1.372 and 1.41 and 1.477
Relative Caspase activation ([4]; LP-182 20 µM): 1.934 and 1.9571 and 1.914 and 1.975 and 2.004 and 1.977
Relative Caspase activation ([4]; LP-182 40 µM): 2.054 and 1.793 and 2.072 and 2.115 and 2.193 and 2.206
